According to patent US20220387405A1, “METHODS OF TREATMENT WITH N-((R)-1-(3-CHLOROPYRIDIN-2-YL)-2,2,2-TRIFLUOROETHYL)-2-((S)-2,6-DIOXOPIPERIDIN-3-YL)-1-OXOISOINDOLINE-5-CARBOXAMIDE” (CELGENE CORPORATION, priority 2021, published 2022):

Key:
[1] = system: leukemic cells from TP53 WT AML patients; experiment: PharmaFlow test (Vivia), cytotoxic effect on leukemic cells in AML patient BM samples; format: cell-based, human; conditions: AML patient samples
[2] = system: Normal T lymphocytes in BM samples; experiment: PharmaFlow test, normal T lymphocytes in AML patient BM samples; format: cell-based, human; conditions: BM samples of AML patients; for Compound 1 all but 1 patient
[3] = system: human peripheral blood (PB) lymphocytes; experiment: In vitro mammalian cell micronucleus test; conditions: 4 hours with and without S9, 24 hours without S9; compared with negative controls
Description: Compound 1 was tested in the in vitro mammalian cell micronucleus test in human peripheral blood (PB) lymphocytes in the presence and absence of a metabolic activation system, Aroclor-induced rat liver fraction (S9), for 4 hours, and in the absence of S9 for 24 hours. The highest concentration tested was 481 μg/mL. Dimethyl sulfoxide (DMSO) was used as the solvent. […] In addition, 2 lower concentrations with appropriate concentration and cytotoxicity spacing were chosen for micronucleus scoring in each regime.

| SMILES | cytotoxicity in leukemic cells [1] | cytotoxicity in T lymphocytes [2] | proportion of micronucleated binucleate cells (MBC) [3] |
| --- | --- | --- | --- |
| COc1cc(C(=O)O)ccc1NC(=O)[C@@H]1N[C@@H](CC(C)(C)C)[C@](C#N)(c2ccc(Cl)cc2F)[C@H]1c1cccc(Cl)c1F [RG7388, idasanutlin, reference compound] | pan-cytotoxicity | pan-cytotoxicity | – |
| O=P1(N(CCCl)CCCl)NCCCO1 (stereo not shown) [cyclophosphamide monohydrate, reference compound] | – | – | statistically significant increases |
| COC(=O)Nc1nc2ccc(C(=O)c3cccs3)cc2[nH]1 [nocodazole, reference compound] | – | – | statistically significant increases |
